Ends that are not written are not given here. Peptide text beside a SMILES is read from it. * marks the point of attachment. Biotin = O=C1N[C@H]2[C@H](CS[C@H]2CCCCC(=O)*)N1

Holding throughout (assay): G' assay (10 uM PL peptide), results of TABLE 7 and TABLE 12
Holding throughout (type): binding

The target in assay [1] is T1, PDZ protein (GST-PDZ fusion) (Homo sapiens, UniProt Q96JH8).
T1 construct: made in house; host or cells: E. coli (DH5alpha, BL21 or JM109)
T1 sequence (Q96JH8 1-1075): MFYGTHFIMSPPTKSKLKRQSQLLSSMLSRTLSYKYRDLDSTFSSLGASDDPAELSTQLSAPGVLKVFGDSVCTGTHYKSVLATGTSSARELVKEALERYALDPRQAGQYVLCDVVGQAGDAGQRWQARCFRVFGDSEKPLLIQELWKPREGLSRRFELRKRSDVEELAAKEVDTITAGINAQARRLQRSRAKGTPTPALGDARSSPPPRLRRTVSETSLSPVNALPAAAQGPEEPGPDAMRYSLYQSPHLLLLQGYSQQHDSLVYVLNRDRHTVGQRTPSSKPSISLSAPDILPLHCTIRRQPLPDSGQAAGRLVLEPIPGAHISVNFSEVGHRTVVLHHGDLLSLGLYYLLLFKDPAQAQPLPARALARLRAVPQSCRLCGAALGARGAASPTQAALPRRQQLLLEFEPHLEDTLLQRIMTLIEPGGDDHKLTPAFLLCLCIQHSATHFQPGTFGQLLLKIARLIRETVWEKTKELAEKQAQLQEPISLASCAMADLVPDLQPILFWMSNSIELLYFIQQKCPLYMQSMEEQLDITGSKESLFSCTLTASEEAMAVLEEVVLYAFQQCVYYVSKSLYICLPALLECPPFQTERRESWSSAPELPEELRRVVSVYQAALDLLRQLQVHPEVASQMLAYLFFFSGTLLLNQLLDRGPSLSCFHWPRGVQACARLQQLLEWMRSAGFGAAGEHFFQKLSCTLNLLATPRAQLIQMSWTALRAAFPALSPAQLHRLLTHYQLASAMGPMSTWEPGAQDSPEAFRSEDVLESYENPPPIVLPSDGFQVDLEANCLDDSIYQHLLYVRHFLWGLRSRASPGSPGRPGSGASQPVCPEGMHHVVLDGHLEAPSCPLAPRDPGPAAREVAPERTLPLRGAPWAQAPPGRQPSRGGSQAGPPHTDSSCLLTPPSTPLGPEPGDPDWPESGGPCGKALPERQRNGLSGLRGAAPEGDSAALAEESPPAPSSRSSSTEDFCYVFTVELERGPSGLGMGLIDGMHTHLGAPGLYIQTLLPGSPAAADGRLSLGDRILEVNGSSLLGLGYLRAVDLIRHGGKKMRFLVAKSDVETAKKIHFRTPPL
As to conditions: PDZ FLJ 10324, PDZ Domain 1. The procedure, abridged:
(§1)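 Biotinylated PL peptides at 10 uM (vs 20 uM in G^0 assay) bound to GST-PDZ fusions; PDZ protein at 5 ug/ml unless another concentration listed. Bound peptide read as A450 nm, classified 0–5 (0 = A450 0; 5 = A450 >4 repeated).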

Assay [2] concerns the target T2, PDZ protein (GST-PDZ fusion) (Homo sapiens, UniProt Q12923).
T2 construct: made in house; host or cells: E. coli (DH5alpha, BL21 or JM109)
The procedure, abridged: as §1

Assay [3] addresses T3, PDZ protein (GST-PDZ fusion) (Homo sapiens, UniProt Q6P0Q8).
T3 construct: made in house; host or cells: E. coli (DH5alpha, BL21 or JM109)
An outline of the steps:
as §1

Assay [4] has as its system PDZ protein (GST-PDZ fusion). The procedure, abridged:
as §1

Where [5] appears, read: PDZ KIAA807, PDZ Domain not given.
The mark [6] stands for this setting: PDZ HEMBA 1003117, PDZ Domain 1.
Setting [7] is: PDZ Unnamed Protein, PDZ Domain 2.

T2 sequence (Q12923 whole entry, the tested form may be a part): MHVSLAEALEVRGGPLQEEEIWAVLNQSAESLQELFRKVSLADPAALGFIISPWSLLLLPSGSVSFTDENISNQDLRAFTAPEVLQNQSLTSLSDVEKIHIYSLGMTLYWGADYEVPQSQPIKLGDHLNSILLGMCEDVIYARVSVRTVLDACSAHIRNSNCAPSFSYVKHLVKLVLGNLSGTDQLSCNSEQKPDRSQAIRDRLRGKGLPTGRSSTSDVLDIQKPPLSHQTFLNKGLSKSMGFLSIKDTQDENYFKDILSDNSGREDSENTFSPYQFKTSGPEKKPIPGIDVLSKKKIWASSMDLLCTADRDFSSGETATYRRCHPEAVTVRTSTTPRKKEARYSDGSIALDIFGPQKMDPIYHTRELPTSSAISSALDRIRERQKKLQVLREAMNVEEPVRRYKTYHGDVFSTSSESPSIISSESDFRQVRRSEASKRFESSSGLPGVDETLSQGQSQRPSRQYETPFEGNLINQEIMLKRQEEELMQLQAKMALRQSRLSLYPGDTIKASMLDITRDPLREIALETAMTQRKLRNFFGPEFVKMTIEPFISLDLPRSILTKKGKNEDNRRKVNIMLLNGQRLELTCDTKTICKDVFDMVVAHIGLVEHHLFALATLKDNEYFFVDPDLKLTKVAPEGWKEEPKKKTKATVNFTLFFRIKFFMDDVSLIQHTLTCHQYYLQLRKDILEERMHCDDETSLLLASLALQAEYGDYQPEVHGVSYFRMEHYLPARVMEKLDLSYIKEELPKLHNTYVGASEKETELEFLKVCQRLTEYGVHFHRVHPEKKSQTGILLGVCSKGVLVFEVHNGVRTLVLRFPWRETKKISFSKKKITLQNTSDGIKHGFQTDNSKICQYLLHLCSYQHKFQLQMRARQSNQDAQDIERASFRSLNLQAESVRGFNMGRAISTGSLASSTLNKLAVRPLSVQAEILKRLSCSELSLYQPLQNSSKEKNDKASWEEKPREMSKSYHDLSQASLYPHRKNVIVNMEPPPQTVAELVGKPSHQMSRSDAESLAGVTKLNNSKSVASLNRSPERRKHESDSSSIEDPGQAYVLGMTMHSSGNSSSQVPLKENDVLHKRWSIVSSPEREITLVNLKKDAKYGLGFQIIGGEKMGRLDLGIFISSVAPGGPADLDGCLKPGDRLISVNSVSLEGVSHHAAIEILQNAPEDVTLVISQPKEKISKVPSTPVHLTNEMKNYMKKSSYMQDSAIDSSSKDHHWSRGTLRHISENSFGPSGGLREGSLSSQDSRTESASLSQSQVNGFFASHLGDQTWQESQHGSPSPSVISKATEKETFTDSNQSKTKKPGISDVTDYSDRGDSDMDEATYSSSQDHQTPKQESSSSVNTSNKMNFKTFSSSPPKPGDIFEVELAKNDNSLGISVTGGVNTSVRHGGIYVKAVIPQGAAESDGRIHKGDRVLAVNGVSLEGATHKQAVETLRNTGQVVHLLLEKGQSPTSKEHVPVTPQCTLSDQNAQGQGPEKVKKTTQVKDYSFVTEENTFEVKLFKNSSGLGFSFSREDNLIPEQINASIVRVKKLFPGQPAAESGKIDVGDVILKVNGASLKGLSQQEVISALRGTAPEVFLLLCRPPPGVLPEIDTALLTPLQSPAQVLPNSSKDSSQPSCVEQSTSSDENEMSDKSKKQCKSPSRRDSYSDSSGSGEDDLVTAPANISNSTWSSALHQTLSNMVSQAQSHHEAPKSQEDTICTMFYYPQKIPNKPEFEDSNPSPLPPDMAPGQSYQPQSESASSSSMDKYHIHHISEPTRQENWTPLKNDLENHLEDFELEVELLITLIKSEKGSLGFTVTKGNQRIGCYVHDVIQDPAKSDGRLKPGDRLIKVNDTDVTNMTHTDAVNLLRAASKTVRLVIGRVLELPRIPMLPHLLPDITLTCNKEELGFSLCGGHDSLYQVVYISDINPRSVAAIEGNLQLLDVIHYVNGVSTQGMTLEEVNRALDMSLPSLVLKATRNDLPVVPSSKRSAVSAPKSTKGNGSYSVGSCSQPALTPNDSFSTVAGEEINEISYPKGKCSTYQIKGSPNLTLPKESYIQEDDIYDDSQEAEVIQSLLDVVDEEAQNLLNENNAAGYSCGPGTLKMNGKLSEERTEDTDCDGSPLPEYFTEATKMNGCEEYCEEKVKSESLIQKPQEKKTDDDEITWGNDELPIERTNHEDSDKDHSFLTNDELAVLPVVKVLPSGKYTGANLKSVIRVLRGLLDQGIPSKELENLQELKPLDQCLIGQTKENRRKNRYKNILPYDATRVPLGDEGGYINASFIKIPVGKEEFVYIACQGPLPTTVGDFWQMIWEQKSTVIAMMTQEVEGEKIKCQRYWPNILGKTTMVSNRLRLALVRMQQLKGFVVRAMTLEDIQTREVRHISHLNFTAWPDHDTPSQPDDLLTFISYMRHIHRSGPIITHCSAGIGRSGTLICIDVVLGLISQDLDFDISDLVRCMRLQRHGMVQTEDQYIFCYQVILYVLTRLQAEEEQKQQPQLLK
T3 sequence (Q6P0Q8 whole entry, the tested form may be a part): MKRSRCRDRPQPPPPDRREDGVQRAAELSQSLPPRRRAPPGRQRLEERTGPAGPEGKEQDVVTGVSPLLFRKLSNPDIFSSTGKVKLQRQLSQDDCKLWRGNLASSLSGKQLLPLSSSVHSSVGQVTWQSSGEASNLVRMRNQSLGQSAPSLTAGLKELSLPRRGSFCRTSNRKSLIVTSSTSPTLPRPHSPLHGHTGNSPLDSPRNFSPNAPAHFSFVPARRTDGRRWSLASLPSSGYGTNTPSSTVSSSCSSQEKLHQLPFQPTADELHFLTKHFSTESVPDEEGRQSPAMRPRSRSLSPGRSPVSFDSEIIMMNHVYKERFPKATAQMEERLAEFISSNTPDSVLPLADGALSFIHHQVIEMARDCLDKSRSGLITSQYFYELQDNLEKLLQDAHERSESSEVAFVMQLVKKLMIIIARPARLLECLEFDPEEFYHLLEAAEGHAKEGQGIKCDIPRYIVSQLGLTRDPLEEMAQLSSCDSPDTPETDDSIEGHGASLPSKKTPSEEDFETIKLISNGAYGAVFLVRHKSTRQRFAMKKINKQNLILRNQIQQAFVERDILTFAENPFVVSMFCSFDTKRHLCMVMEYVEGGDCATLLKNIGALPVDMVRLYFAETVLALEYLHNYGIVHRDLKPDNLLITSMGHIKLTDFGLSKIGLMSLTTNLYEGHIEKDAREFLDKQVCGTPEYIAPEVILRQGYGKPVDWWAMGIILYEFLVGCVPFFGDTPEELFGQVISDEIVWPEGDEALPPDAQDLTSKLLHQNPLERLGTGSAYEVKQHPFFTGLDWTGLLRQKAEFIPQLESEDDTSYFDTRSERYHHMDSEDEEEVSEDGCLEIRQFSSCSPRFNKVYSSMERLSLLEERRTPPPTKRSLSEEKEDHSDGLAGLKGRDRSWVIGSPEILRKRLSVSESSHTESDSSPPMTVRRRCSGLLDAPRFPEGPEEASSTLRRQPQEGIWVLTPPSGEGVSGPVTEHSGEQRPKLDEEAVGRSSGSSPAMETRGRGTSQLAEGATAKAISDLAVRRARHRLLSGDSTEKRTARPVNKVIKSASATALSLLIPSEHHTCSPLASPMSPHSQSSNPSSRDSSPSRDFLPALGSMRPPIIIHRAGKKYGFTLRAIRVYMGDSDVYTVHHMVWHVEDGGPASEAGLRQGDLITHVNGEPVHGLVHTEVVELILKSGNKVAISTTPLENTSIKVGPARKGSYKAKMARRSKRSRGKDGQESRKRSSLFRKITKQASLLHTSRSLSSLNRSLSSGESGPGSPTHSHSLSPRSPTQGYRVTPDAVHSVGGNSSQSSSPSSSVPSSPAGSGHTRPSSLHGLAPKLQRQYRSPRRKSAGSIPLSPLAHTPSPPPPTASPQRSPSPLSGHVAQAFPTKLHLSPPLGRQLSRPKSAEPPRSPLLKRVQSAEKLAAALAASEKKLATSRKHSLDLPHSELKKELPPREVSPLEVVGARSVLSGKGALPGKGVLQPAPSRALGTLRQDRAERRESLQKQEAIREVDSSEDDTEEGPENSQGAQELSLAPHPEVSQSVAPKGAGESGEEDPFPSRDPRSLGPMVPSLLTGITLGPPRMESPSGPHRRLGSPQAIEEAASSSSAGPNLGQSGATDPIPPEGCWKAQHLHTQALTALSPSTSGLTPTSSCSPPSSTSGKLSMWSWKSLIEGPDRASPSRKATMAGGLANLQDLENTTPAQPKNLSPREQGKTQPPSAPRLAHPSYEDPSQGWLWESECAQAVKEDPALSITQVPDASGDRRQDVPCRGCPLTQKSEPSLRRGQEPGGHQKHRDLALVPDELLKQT

With “ISGTPTSTMVHGMTSSSSVV (Biotin-ISGTPTSTMVHGMTSSSSVV) [Clasp-2]”, the Classification in assay [1] was 1 (A450 nm 0-1); in assay [2] (PDZ PTPL-1, PDZ Domain 2) it was 1 (A450 nm 0-1); in assay [3] (setting [5]) it was 1 (A450 nm 0-1); in assay [4] (PDZ BAI-1, PDZ Domain 2), 1 (A450 nm 0-1); in assay [4] (PDZ BAI-1, PDZ Domain 5) it was 1 (A450 nm 0-1).
`CC(C)C[C@H](NC(=O)[C@H](C)NC(=O)[C@H](CO)NC(=O)CNC(=O)[C@@H](NC(=O)CCCC[C@@H]1SC[C@@H]2NC(=O)N[C@@H]21)[C@@H](C)O)C(=O)N[C@@H](CCC(N)=O)C(=O)N[C@@H](C)C(=O)N[C@@H](Cc1c[nH]c2ccccc12)C(=O)N[C@@H](CCCNC(=N)N)C(=O)N[C@@H](Cc1c[nH]cn1)C(=O)N[C@H](C(=O)N[C@@H](CO)C(=O)N[C@@H](CCCNC(=N)N)C(=O)N[C@@H](CCC(N)=O)C(=O)N[C@@H](C)C(=O)N[C@H](C(=O)N[C@@H](CCC(=O)O)C(=O)N[C@@H](CO)C(=O)N[C@H](C(=O)N[C@H](C(=O)O)C(C)C)[C@@H](C)O)[C@@H](C)O)[C@@H](C)O` [HPV E6 #66 (modified)] (Biotin-TGSALQAWRHTSRQATESTV-OH; C-terminus assumed): the Classification in assay [1] was 1 (A450 nm 0-1); in assay [2] (PDZ PTPL-1, PDZ Domain 2), 3 (A450 nm 2-3); in assay [3] (PDZ KIAA0807(S), PDZ Domain 1), 4 (A450 nm 3-4); in assay [3] (setting [5]), 2 (A450 nm 1-2); in assay [4] (PDZ BAI-1, PDZ Domain 2), 5 (A450 nm of 4 more than 2× repeated); in assay [4] (PDZ BAI-1, PDZ Domain 3) it was 1 (A450 nm 0-1). Moreover, the Classification in assay [4] (PDZ BAI-1, PDZ Domain 5) is 1 (A450 nm 0-1); in assay [4] (PDZ FLJ 00011, PDZ Domain 1), 1 (A450 nm 0-1).
As for `CC[C@H](C)[C@H](NC(=O)[C@H](CCC(N)=O)NC(=O)[C@@H](NC(=O)[C@H](Cc1c[nH]cn1)NC(=O)[C@H](CCC(N)=O)NC(=O)[C@H](CC(=O)O)NC(=O)[C@H](CCC(=O)O)NC(=O)[C@H](CC(=O)O)NC(=O)[C@H](Cc1ccccc1)NC(=O)[C@@H]1CCCN1C(=O)[C@H](CCC(=O)O)NC(=O)[C@H](CC(N)=O)NC(=O)[C@H](CCC(=O)O)NC(=O)[C@@H]1CCCN1C(=O)[C@H](CC(=O)O)NC(=O)[C@H](CO)NC(=O)[C@H](CC(=O)O)NC(=O)CCCC[C@@H]1SC[C@@H]2NC(=O)N[C@@H]21)[C@@H](C)O)C(=O)N[C@H](C(=O)N[C@@H](CCCCN)C(=O)N[C@H](C(=O)O)C(C)C)[C@@H](C)O` [PTEN], the Classification in assay [1] is on record as 1 (A450 nm 0-1); in assay [2] (PDZ PTPL-1, PDZ Domain 2), 4 (A450 nm 3-4); in assay [2] (PDZ PTPL-1, PDZ Domain 4), 1 (A450 nm 0-1); in assay [3] (PDZ KIAA0807(S), PDZ Domain 1), 5 (A450 nm of 4 more than 2× repeated); in assay [3] (setting [5]), 5 (A450 nm of 4 more than 2× repeated); in assay [4] (PDZ BAI-1, PDZ Domain 3) it was 2 (A450 nm 1-2). The Classification in assay [4] (PDZ FLJ 00011, PDZ Domain 1) is listed as 3 (A450 nm 2-3); in assay [4] (setting [6]), 1 (A450 nm 0-1); in assay [4] (PDZ SHANK, PDZ Domain 1), 3 (A450 nm 2-3).
Turning to `CC[C@H](C)[C@H](NC(=O)[C@H](CCCCN)NC(=O)[C@@H](NC(=O)[C@H](CO)NC(=O)[C@@H]1CCCN1C(=O)[C@H](Cc1ccccc1)NC(=O)[C@@H](NC(=O)[C@@H](NC(=O)[C@H](CCCNC(=N)N)NC(=O)[C@H](CCC(=O)O)NC(=O)[C@H](CC(C)C)NC(=O)[C@H](CC(C)C)NC(=O)[C@H](CC(C)C)NC(=O)[C@@H](NC(=O)CNC(=O)[C@@H](NC(=O)CCCC[C@@H]1SC[C@@H]2NC(=O)N[C@@H]21)C(C)C)[C@@H](C)O)C(C)C)[C@@H](C)CC)C(C)C)C(=O)N[C@@H](C)C(=O)N[C@H](C(=O)N[C@@H](CC(C)C)C(=O)N[C@H](C(=O)O)C(C)C)[C@@H](C)O` [Adenovirus E4 Type9], the Classification in assay [1] (Protein Optimal Conc 5) is recorded as 3 (A450 nm 2-3); in assay [2] (PDZ PTPL-1, PDZ Domain 2, Protein Optimal Conc 5), 3 (A450 nm 2-3); in assay [2] (PDZ PTPL-1, PDZ Domain 4, PL peptide 10 uM), 4 (A450 nm 3-4); in assay [3] (PDZ KIAA0807(S), PDZ Domain 1, Protein Optimal Conc 5), 3 (A450 nm 2-3); in assay [3] (PDZ KIAA807 (domain not given), PL peptide 10 uM) it was 4 (A450 nm 3-4); in assay [4] (PDZ BAI-1, PDZ Domain 2, Protein Optimal Conc 0.3), 5 (A450 nm of 4 more than 2× repeated). Besides, the Classification is listed as 5 (A450 nm of 4 more than 2× repeated) in assay [4] (PDZ BAI-1, PDZ Domain 3, Protein Optimal Conc 0.5); 5 (A450 nm of 4 more than 2× repeated) in assay [4] (PDZ BAI-1, PDZ Domain 4, Protein Optimal Conc 0.3); 1 (A450 nm 0-1) in assay [4] (PDZ BAI-1, PDZ Domain 6, PL peptide 10 uM); 3 (A450 nm 2-3) in assay [4] (PDZ Connector Enhancer, PDZ Domain 1, Protein Optimal Conc 5); 1 (A450 nm 0-1) in assay [4] (PDZ FLJ 00011, PDZ Domain 1, PL peptide 10 uM); 3 (A450 nm 2-3) in assay [4] (PDZ HEMBA 1003117, PDZ Domain 1, Protein Optimal Conc 5).
For “A2AA_HUMAN (modified) (Biotin-HDFRRAFKKILARGDRKRIV; not fully specified)”, the Classification was 1 (A450 nm 0-1) in assay [1]; 2 (A450 nm 1-2) in assay [2] (PDZ PTPL-1, PDZ Domain 2); 1 (A450 nm 0-1) in assay [3] (PDZ KIAA0807(S), PDZ Domain 1); 3 (A450 nm 2-3) in assay [4] (PDZ BAI-1, PDZ Domain 6); 1 (A450 nm 0-1) in assay [4] (setting [6]); 1 (A450 nm 0-1) in assay [4] (setting [7]).
Regarding `CC[C@H](C)[C@H](NC(=O)[C@H](Cc1ccc(O)cc1)NC(=O)[C@@H](NC(=O)[C@@H]1CCCN1C(=O)[C@H](CCC(N)=O)NC(=O)[C@H](CCC(=O)O)NC(=O)[C@H](CCC(N)=O)NC(=O)[C@H](C)NC(=O)[C@@H](NC(=O)[C@H](CC(C)C)NC(=O)[C@H](CC(C)C)NC(=O)[C@H](CCCNC(=N)N)NC(=O)[C@H](Cc1ccc(O)cc1)NC(=O)[C@H](CCSC)NC(=O)[C@H](C)NC(=O)[C@H](C)NC(=O)[C@@H]1CCCN1C(=O)[C@H](CCSC)NC(=O)[C@@H](NC(=O)[C@H](CCCCN)NC(=O)CCCC[C@@H]1SC[C@@H]2NC(=O)N[C@@H]21)[C@@H](C)O)[C@@H](C)O)C(C)C)C(=O)O` [MINT-1] (Biotin-KTMPAAMYRLLTAQEQPVYI-OH; C-terminus assumed), the Classification in assay [1] is recorded as 5 (A450 nm of 4 more than 2× repeated); in assay [2] (PDZ PTPL-1, PDZ Domain 4), 5 (A450 nm of 4 more than 2× repeated); in assay [3] (PDZ KIAA0807(S), PDZ Domain 1), 5 (A450 nm of 4 more than 2× repeated); in assay [3] (setting [5]), 4 (A450 nm 3-4); in assay [4] (setting [6]), 3 (A450 nm 2-3).
As for `CC(C)C[C@H](NC(=O)[C@H](C)NC(=O)[C@@H](NC(=O)[C@@H](NC(=O)[C@H](Cc1c[nH]cn1)NC(=O)[C@H](CC(C)C)NC(=O)CNC(=O)[C@H](CCC(N)=O)NC(=O)CNC(=O)CNC(=O)[C@H](C)NC(=O)[C@H](C)NC(=O)[C@H](CCCNC(=N)N)NC(=O)[C@H](C)NC(=O)[C@H](CO)NC(=O)[C@H](CC(=O)O)NC(=O)[C@H](CC(=O)O)NC(=O)[C@H](Cc1c[nH]c2ccccc12)NC(=O)[C@H](C)NC(=O)CCCC[C@@H]1SC[C@@H]2NC(=O)N[C@@H]21)C(C)C)[C@@H](C)O)C(=O)O` [LPAP] (Biotin-AWDDSARAAGGQGLHVTAL-OH; C-terminus assumed), the Classification in assay [1] is listed as 1 (A450 nm 0-1); in assay [2] (PDZ PTPL-1, PDZ Domain 2), 1 (A450 nm 0-1); in assay [3] (PDZ KIAA807), 5 (A450 nm of 4 more than 2× repeated); in assay [4] (PDZ BAI-1, PDZ Domain 2), 2 (A450 nm 1-2); in assay [4] (PDZ FLJ 00011, PDZ Domain 1), 4 (A450 nm 3-4); in assay [4] (setting [6]) it was 1 (A450 nm 0-1). Also, the Classification was 3 (A450 nm 2-3) in assay [4] (PDZ SHANK, PDZ Domain 1) and 3 (A450 nm 2-3) in assay [4] (setting [7]).

The record behind these values is patent US20050282743A1, “Molecular interactions in cells” (Arbor Vita Corporation, priority 2001, published 2005).
